Laboratory results taken from PubChem BioAssay (NCI).
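Tested at 5 concentrations; 48 h exposure; 96-well plates; endpoints linearly interpolated, else capped at highest concentration. GI50 = concentration required for 50% inhibition of growth. TGI is the concentration that stops growth completely.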

How the values were obtained:
Experiment in all cases: growth of human tumour cells (NCI), 48 h
A549 NSCLC = test system: A549 NSCLC
MDA-MB-435 = test system: MDA-MB-435
A498 renal = test system: A498 renal
786-0 renal = test system: 786-0 renal
NCI-H460 lung = test system: NCI-H460 lung
ACHN renal = test system: ACHN renal
SN12C renal = test system: SN12C renal
HCC-2998 colon = test system: HCC-2998 colon
OVCAR-5 ovarian = test system: OVCAR-5 ovarian
OVCAR-4 ovarian = test system: OVCAR-4 ovarian
SK-OV-3 ovarian = test system: SK-OV-3 ovarian
MCF7 breast = test system: MCF7 breast
SF-539 CNS = test system: SF-539 CNS
NCI-H226 lung = test system: NCI-H226 lung
BT-549 breast = test system: BT-549 breast
SF-295 CNS = test system: SF-295 CNS
DU-145 prostate = test system: DU-145 prostate
NCI-H23 lung = test system: NCI-H23 lung
UO-31 renal = test system: UO-31 renal
SNB-19 CNS = test system: SNB-19 CNS
CAKI-1 renal = test system: CAKI-1 renal
NCI/ADR-RES ovarian = test system: NCI/ADR-RES ovarian
MALME-3M melanoma = test system: MALME-3M melanoma
EKVX NSCLC = test system: EKVX NSCLC
COLO 205 colon = test system: COLO 205 colon
K-562 leukemia = test system: K-562 leukemia
MDA-MB-231 breast = test system: MDA-MB-231 breast
HT29 colon = test system: HT29 colon
UACC-62 melanoma = test system: UACC-62 melanoma
SK-MEL-28 melanoma = test system: SK-MEL-28 melanoma
HCT-15 colon = test system: HCT-15 colon
SK-MEL-5 melanoma = test system: SK-MEL-5 melanoma
RXF 393 renal = test system: RXF 393 renal
HL-60(TB) leukemia = test system: HL-60(TB) leukemia
LOX IMVI melanoma = test system: LOX IMVI melanoma
OVCAR-3 ovarian = test system: OVCAR-3 ovarian
U251 CNS = test system: U251 CNS
SR leukemia = test system: SR leukemia
SF-268 CNS = test system: SF-268 CNS
KM12 colon = test system: KM12 colon
RPMI-8226 leukemia = test system: RPMI-8226 leukemia
SW-620 colon = test system: SW-620 colon
HCT-116 colon = test system: HCT-116 colon
TK-10 renal = test system: TK-10 renal
MOLT-4 leukemia = test system: MOLT-4 leukemia
CCRF-CEM leukemia = test system: CCRF-CEM leukemia
HOP-62 NSCLC = test system: HOP-62 NSCLC
SNB-75 CNS = test system: SNB-75 CNS
NCI-H522 lung = test system: NCI-H522 lung
OVCAR-8 ovarian = test system: OVCAR-8 ovarian
T-47D breast = test system: T-47D breast
IGROV1 ovarian = test system: IGROV1 ovarian
M14 melanoma = test system: M14 melanoma
PC-3 prostate = test system: PC-3 prostate
HS 578T breast = test system: HS 578T breast
SK-MEL-2 melanoma = test system: SK-MEL-2 melanoma
HOP-92 NSCLC = test system: HOP-92 NSCLC
UACC-257 melanoma = test system: UACC-257 melanoma

C[C@H]1[C@H](C)CC[C@]2(C(=O)O)CC[C@]3(C)C(=CC[C@@H]4[C@@]5(C)C/C(=C/c6ccco6)C(=O)C(C)(C)[C@@H]5CC[C@]43C)[C@H]12
GI50 (A549 NSCLC): 3.71 µM
TGI (A549 NSCLC): 16.8 µM
GI50 (MDA-MB-435): 6.58 µM
TGI (MDA-MB-435): 20.4 µM
GI50 (A498 renal): 11.5 µM
TGI (A498 renal): 33.8 µM
GI50 (786-0 renal): 4.09 µM
TGI (786-0 renal): 19.1 µM
GI50 (NCI-H460 lung): 3.37 µM
TGI (NCI-H460 lung): 11.9 µM
GI50 (ACHN renal): 3.6 µM
TGI (ACHN renal): 13.5 µM
GI50 (SN12C renal): 3.7 µM
TGI (SN12C renal): 18.9 µM
GI50 (HCC-2998 colon): 3.84 µM
TGI (HCC-2998 colon): 15.3 µM
GI50 (OVCAR-5 ovarian): 7.59 µM
TGI (OVCAR-5 ovarian): 21 µM
GI50 (OVCAR-4 ovarian): 11.8 µM
TGI (OVCAR-4 ovarian): 33.8 µM
GI50 (SK-OV-3 ovarian): 5.83 µM
TGI (SK-OV-3 ovarian): 33.9 µM
GI50 (MCF7 breast): 3.17 µM
TGI (MCF7 breast): 13 µM
GI50 (SF-539 CNS): 4.67 µM
TGI (SF-539 CNS): 16.8 µM
GI50 (NCI-H226 lung): 4.36 µM
TGI (NCI-H226 lung): 23.2 µM
GI50 (BT-549 breast): 4.76 µM
TGI (BT-549 breast): 18.9 µM
GI50 (SF-295 CNS): 3.72 µM
TGI (SF-295 CNS): 15.5 µM
GI50 (DU-145 prostate): 6.41 µM
TGI (DU-145 prostate): 30.9 µM
GI50 (NCI-H23 lung): 3.85 µM
TGI (NCI-H23 lung): 16.3 µM
GI50 (UO-31 renal): 2.94 µM
TGI (UO-31 renal): 13.1 µM
GI50 (SNB-19 CNS): 5.07 µM
TGI (SNB-19 CNS): 23.2 µM
GI50 (CAKI-1 renal): 4.55 µM
TGI (CAKI-1 renal): 18 µM
GI50 (NCI/ADR-RES ovarian): 3.84 µM
TGI (NCI/ADR-RES ovarian): 16.1 µM
GI50 (MALME-3M melanoma): 8.01 µM
TGI (MALME-3M melanoma): 22.2 µM
GI50 (EKVX NSCLC): 3.69 µM
TGI (EKVX NSCLC): 15.4 µM
GI50 (COLO 205 colon): 3.6 µM
TGI (COLO 205 colon): 15.1 µM
GI50 (K-562 leukemia): 3.26 µM
TGI (K-562 leukemia): > 100 µM
GI50 (MDA-MB-231 breast): 6.72 µM
TGI (MDA-MB-231 breast): 24.1 µM
GI50 (HT29 colon): 5.3 µM
TGI (HT29 colon): 34.6 µM
GI50 (UACC-62 melanoma): 2.86 µM
TGI (UACC-62 melanoma): 13 µM
GI50 (SK-MEL-28 melanoma): 4.81 µM
TGI (SK-MEL-28 melanoma): 17.5 µM
GI50 (HCT-15 colon): 2.95 µM
TGI (HCT-15 colon): 12.1 µM
GI50 (SK-MEL-5 melanoma): 4.44 µM
TGI (SK-MEL-5 melanoma): 15.6 µM
GI50 (RXF 393 renal): 4.46 µM
TGI (RXF 393 renal): 16.3 µM
GI50 (HL-60(TB) leukemia): 2.44 µM
TGI (HL-60(TB) leukemia): 7.04 µM
GI50 (LOX IMVI melanoma): 4.51 µM
TGI (LOX IMVI melanoma): 17 µM
GI50 (OVCAR-3 ovarian): 3.44 µM
TGI (OVCAR-3 ovarian): 11.9 µM
GI50 (U251 CNS): 4.27 µM
TGI (U251 CNS): 17 µM
GI50 (SR leukemia): 4.12 µM
TGI (SR leukemia): 50.8 µM
GI50 (SF-268 CNS): 5.59 µM
TGI (SF-268 CNS): 22.1 µM
GI50 (KM12 colon): 3.82 µM
TGI (KM12 colon): 15.6 µM
GI50 (RPMI-8226 leukemia): 2.83 µM
TGI (RPMI-8226 leukemia): 15.7 µM
GI50 (SW-620 colon): 4.19 µM
TGI (SW-620 colon): 19.5 µM
GI50 (HCT-116 colon): 3.1 µM
TGI (HCT-116 colon): 11.7 µM
GI50 (TK-10 renal): 7.9 µM
TGI (TK-10 renal): 26.3 µM
GI50 (MOLT-4 leukemia): 3.17 µM
TGI (MOLT-4 leukemia): 14 µM
GI50 (CCRF-CEM leukemia): 3.52 µM
TGI (CCRF-CEM leukemia): 16.8 µM
GI50 (HOP-62 NSCLC): 3.78 µM
TGI (HOP-62 NSCLC): 16.9 µM
GI50 (SNB-75 CNS): 18.6 µM
TGI (SNB-75 CNS): 71.8 µM
GI50 (NCI-H522 lung): 6.35 µM
TGI (NCI-H522 lung): 23.6 µM
GI50 (OVCAR-8 ovarian): 4.63 µM
TGI (OVCAR-8 ovarian): 24.1 µM
GI50 (T-47D breast): 3.79 µM
TGI (T-47D breast): 33.8 µM
GI50 (IGROV1 ovarian): 5.19 µM
TGI (IGROV1 ovarian): 21.7 µM
GI50 (M14 melanoma): 5.27 µM
TGI (M14 melanoma): 21.2 µM
GI50 (PC-3 prostate): 2.89 µM
TGI (PC-3 prostate): 13.3 µM
GI50 (HS 578T breast): 11.6 µM
TGI (HS 578T breast): > 100 µM
GI50 (SK-MEL-2 melanoma): 10.1 µM
TGI (SK-MEL-2 melanoma): 30.4 µM
GI50 (HOP-92 NSCLC): 2.54 µM
TGI (HOP-92 NSCLC): 12.5 µM
GI50 (UACC-257 melanoma): 6.49 µM
TGI (UACC-257 melanoma): 29.1 µM
